Test results as given in patent publication US12129265B2, “Therapeutic agents and uses thereof” (Ankh Life Sciences Limited, priority 2020, dated 2024).
Where two headings read alike, the source gives them in different places.

Columns and labels:
Assay in all cases: CellTiter-Glo in vitro cell proliferation assay, Example 8
Format in all cases: cell-based, Human
RPMI-8226 cells = settings: RPMI-8226, HMM
Experimental: (§1) Each proliferation assay was carried out as follows. The test cells were plated in growth media using a 384-well microtiter plate at 50 μL volume. The cells were incubated for 24 hours at 37° C. in a humidified incubator. After 24 hours of incubation, the test compounds were added to the test wells in DSMO solvent, at concentrations ranging from 0.0075-100 μM. Control wells received equal volumes of DSMO, without compound. Following drugging, the cells were incubated for 72 hours at 37° C. in a humidified incubator. After this exposure, 100 μL of a 1:1 mixture of sterile water and CellTiter-Glo® reagent (Promega) was added to each well. The plates were then incubated for 60 minutes at room temperature, followed by recording the luminescence value of each well using a luminometer as a measure of cell proliferation.
In this example, different cell lines were subjected to in vitro cell proliferation assays as described in Example 8. In particular, the cell lines are identified in the following Table 17, and the tissue types were: Pancreatic; Endometrial; Triple-Negative Breast Cancer (TNBC); Non-Small-Cell Lung Carcinoma (NSCLC); Ovarian; Renal Cell Carcinoma (RCC); Cervical-Squamous Cell; […] (H&N-Squamous Cell); Germinal Center B Cell-Like Novo Diffuse Large B-Cell Lymphoma (GCB-DLBCL); Activated B-Cell—Diffuse Large B Cell Lymphoma (ABC-DLBCL); Human Myeloma; Human Myeloma Cell Line Lymphocyte-Like; Human Myeloma Cell Line Lymphocyte-Like Myeloma Pleural Effusion Infiltration; Human Multiple Myeloma; Plasma Cell Leukemia/Multiple Myeloma Epstein-Barr Nuclear Antigen-Negative (EBNA-Negative) and to Express mRNA for Proto-Oncogene B-Cell Lymphoma 2 (BCL2); Multiple Myeloma from Peripheral Blood Type IgD Lmabda.

MOLP-8 cells = settings: MOLP-8, MM IgD; read-out: Mean IC50
Experimental: (§2) In this Example, in vitro cell proliferation assays were performed using: (1) Human Myeloma tumor cell lines; (2) Human Lymphoma tumor cell lines; (3) Solid Human tumor cell lines; and (4) Parental, Lenalidomide resistant and Bortezomib resistant Jeko-1 Mantle cell Lymphoma tumor cell lines. The compounds tested were three diharmaline compounds, namely the 518B562 (or simply 562), 560, and 561 compounds. In addition, a monoharmaline product designated as 518F014 was also tested. This monoharmaline product had the following structure:
as §1

MDA-MB-468 cells = settings: MDA-MB-468, TNBC; read-out: Mean IC50
Experimental: as §2, §1

A498 cells = settings: A498, RCC; read-out: Mean IC50
Experimental: as §2, §1

HCC70 cells = settings: HCC70, TNBC; read-out: Mean IC50
Experimental: as §2, §1

JIM1 cells = settings: JIM1, HMCL, read-out: Mean IC50
Experimental: as §2, §1

A2780 cells = settings: A2780, Ovarian, read-out: Mean IC50
Experimental: as §2, §1

HEC-1a cells = settings: Endometrial, read-out: Mean IC50
Experimental: as §2, §1

L363 cells = settings: L363, PCL/MM, read-out: Mean IC50
Experimental: as §2, §1

H1650 (EGFR mut) cells = settings: NSCLC, read-out: Mean IC50
Experimental: as §2, §1

MIA PaCa-2 cells = settings: MIA PaCa-2, Pancreatic, read-out: Mean IC50
Experimental: as §2, §1

MDA-MB-231 cells = settings: MDA-MB-231, TNBC; read-out: Mean IC50
Experimental: as §2, §1

ASPC-1 cells = settings: ASPC-1, Pancreatic, read-out: Mean IC50
Experimental: as §2, §1

BxPC-3 cells = settings: BxPC-3, Pancreatic; read-out: Mean IC50
Experimental: as §2, §1

OCI-LY3 cells = settings: OCI-LY3, ABC-DLBCL; read-out: Mean IC50
Experimental: as §2, §1

FaDu cells = settings: H&N - SC, read-out: Mean IC50
Experimental: as §2, §1

H1975 (EGFR mut) cells = settings: NSCLC, read-out: Mean IC50
Experimental: as §2, §1

DOHH-2 cells = settings: DoHH-2, GCB-DLBCL, read-out: Mean IC50
Experimental: as §2, §1

KMS-34 cells = settings: KMS-34, HMCL-B; read-out: Mean IC50
Experimental: as §2, §1

AN3CA cells = settings: Endometrial, read-out: Mean IC50
Experimental: as §2, §1

A2780CP cells = settings: Ovarian, read-out: Mean IC50
Experimental: as §2, §1

KMM-1 cells = settings: KMM-1, HMCL-A, read-out: Mean IC50
Experimental: as §2, §1

SiHA cells = settings: Cervical - SC, read-out: Mean IC50
Experimental: as §2, §1

| SMILES | IC50 (RPMI-8226 cells) | IC50 (MOLP-8 cells) | IC50 (MDA-MB-468 cells) | IC50 (A498 cells) | IC50 (HCC70 cells) | IC50 (JIM1 cells) | IC50 (A2780 cells) | IC50 (L363 cells) | IC50 (H1650 (EGFR mut) cells) | IC50 (MIA PaCa-2 cells) | IC50 (MDA-MB-231 cells) | IC50 (ASPC-1 cells) | IC50 (BxPC-3 cells) | IC50 (OCI-LY3 cells) | IC50 (FaDu cells) | IC50 (DOHH-2 cells) | IC50 (KMS-34 cells) | IC50 (AN3CA cells) | IC50 (A2780CP cells) | IC50 (KMM-1 cells) | other results |
| --- | --- | --- | --- | --- | --- | --- | --- | --- | --- | --- | --- | --- | --- | --- | --- | --- | --- | --- | --- | --- | --- |
| COc1ccc2c3c([nH]c2c1)C(CC(CC1=NCCc2c1[nH]c1cc(OC)ccc21)c1ccc(OC)c(O)c1Br)=NCC3 [compound 13] | 9.1 µM | 11 µM | 12.6 µM | 91.6 µM | 28.5 µM | 11.5 µM | 11.8 µM | 12.9 µM | 21.2 µM | 15.8 µM | 25.8 µM | 82.5 µM | 16.6 µM | 11.7 µM | 13.5 µM | 6.52 µM | 11.1 µM | 7.82 µM | 23.4 µM | 13.1 µM | IC50 (HEC-1a cells): 17.4 µM; IC50 (H1975 (EGFR mut) cells): 14 µM |
| COc1cc(C2CC3(CC4(NCCc5sccc54)C2C2=NCCc4sccc42)NCCc2sccc23)ccc1O (stereo not shown) [HRM05] |  |  |  |  |  |  |  |  |  |  |  |  |  |  |  |  |  |  |  |  | IC50 (JIM1 cells; Homo sapiens): 17.6 µM; IC50 (A2780 cells; Homo sapiens): 15.9 µM; IC50 (L363 cells; Homo sapiens, L-363): 13.7 µM; IC50 (MIA PaCa-2 cells; Homo sapiens): 12.2 µM; IC50 (ASPC-1 cells; Homo sapiens, ASPC1): 20.2 µM; IC50 (FaDu cells; Homo sapiens): 14 µM; IC50 (DOHH-2 cells; Homo sapiens): 17.6 µM; IC50 (KMM-1 cells; Homo sapiens): 12.5 µM |
| COc1ccc(C(CC2=NCCc3c2[nH]c2cc(OC)ccc32)CC2=NCCc3c2[nH]c2cc(OC)ccc32)c(O)c1 [compound 8] | 11.5 µM | 10.1 µM | 8.45 µM | 78.7 µM | 24.9 µM | 14.3 µM | 18.7 µM | 12.6 µM | 59.9 µM | 24.2 µM | 24.4 µM | 55.6 µM | 21.9 µM | 11.3 µM | 16.1 µM | 6.37 µM | 11.1 µM | 20.2 µM | 49.8 µM | 13.2 µM | IC50 (HEC-1a cells): 65.8 µM; IC50 (H1975 (EGFR mut) cells): 55.1 µM |
| COc1ccc2c3c([nH]c2c1)C(CC(CC1=NCCc2c1[nH]c1cc(OC)ccc21)c1ccc(OC)c(Oc2ccccc2)c1)=NCC3 [compound 10] | 3.98 µM | 8.28 µM | 11.4 µM | 79.2 µM | 50.2 µM | 20.1 µM | 65 µM | 35.6 µM | 13.3 µM | 11.9 µM | 43.7 µM | 23.8 µM | 27.6 µM | 7.57 µM | 49.7 µM | 2.78 µM | 4.87 µM | 31.7 µM | 29.4 µM | 11.1 µM | IC50 (HEC-1a cells): 88.1 µM; IC50 (H1975 (EGFR mut) cells): 64 µM |
| C=C(C)C1CC=C(C(CC2=NCCc3c2[nH]c2cc(OC)ccc32)CC2=NCCc3c2[nH]c2cc(OC)ccc32)CC1 (stereo not shown) [compound 28] | 3.5 µM | 3.71 µM | 8.43 µM | 16.3 µM | 11.9 µM | 8.08 µM |  | 4.75 µM | 11.3 µM | 4.51 µM | 10.1 µM | 7.22 µM | 6.58 µM | 6.17 µM | 5.64 µM | 2.5 µM | 4.44 µM | 4.49 µM | 7.02 µM | 6.43 µM | IC50 (HEC-1a cells): 10.6 µM; IC50 (SiHA cells): 13.3 µM |
| COc1ccc2c3c([nH]c2c1)C(CC(CC1=NCCc2c1[nH]c1cc(OC)ccc21)c1cccc(-c2ccccc2)c1)=NCC3 [compound 18] | 12.3 µM | 12.2 µM | 48.7 µM | 93.4 µM | 36.3 µM | 39.8 µM | 26.3 µM | 34.8 µM | 45.4 µM | 32.5 µM | 43.9 µM | 43.8 µM | 36.2 µM | 25 µM | 49.2 µM | 8.55 µM | 17.8 µM | 28.8 µM | 31.2 µM | 33.6 µM | IC50 (HEC-1a cells): 49.8 µM; IC50 (H1975 (EGFR mut) cells): 59.1 µM |
| COc1ccc2c3c([nH]c2c1)C(CC(CC1=NCCc2c1[nH]c1cc(OC)ccc21)c1ccc(C(C)C)cc1)=NCC3 [compound 29] | 4.44 µM | 5.89 µM |  | 42.5 µM | 40 µM | 16.6 µM | 12.1 µM | 11.4 µM | 13.9 µM | 11.3 µM | 13.9 µM | 10.8 µM | 11.5 µM | 9.63 µM | 11.4 µM | 2.09 µM | 4.4 µM | 8.07 µM | 11.5 µM | 7.71 µM | IC50 (SiHA cells): 46.9 µM; IC50 (H1975 (EGFR mut) cells): 13.6 µM |
| COc1ccc2c3c([nH]c2c1)C(CC(CC1=NCCc2c1[nH]c1cc(OC)ccc21)c1cc(Cl)c(O)c(OC)c1)=NCC3 [compound 9] | 11.5 µM | 6.59 µM | 12.7 µM |  | 39 µM | 40.6 µM | 35.7 µM | 19.7 µM | 79.7 µM | 52.6 µM | 45.8 µM | 70 µM | 30 µM | 11.9 µM | 72.3 µM | 9.76 µM | 11.4 µM | 29.3 µM | 60.3 µM | 16 µM | IC50 (HEC-1a cells): 95.6 µM; IC50 (H1975 (EGFR mut) cells): 54.6 µM |
| COc1ccc2c3c([nH]c2c1)C(CC(CC1=NCCc2c1[nH]c1cc(OC)ccc21)c1ccc(OC(C)=O)c(OC)c1)=NCC3 [compound 6] | 10.3 µM | 11.5 µM | 14.5 µM |  |  | 18 µM |  | 16.3 µM |  | 13.6 µM | 60.5 µM |  | 15.8 µM | 11.3 µM | 15.8 µM | 6.91 µM | 11 µM | 21.4 µM | 70.7 µM | 16.9 µM | IC50 (SiHA cells): 74.8 µM |
